According to patent publication US9302967B2, “Substituted cathechols as inhibitors of IL-4 and IL-5 for the treatment of bronchial asthma” (Council of Scientific & Industrial Research, priority 2011, dated 2016):
Like-named read-outs stand apart in the source and are kept apart here.

Key:
[1] = mouse, in vivo
Experimental: (§1) Earlier, LD50 of ICB 14 C6 was derived from in vitro cytotoxicity assay by NRUmethod in 3T3 cells. […] For 90d sub-chronic toxicity study the highest dose selected was one-fourth of the limit dose. Four different doses of ICB14 C6 (47, 23, 12 and 0 [vehicle] mg/kg body weight) were prepared in ground nut oil daily for 5 days a week for 90d.
Blood samples were taken from the retro-orbital sinus on day 91 for hematological and clinical chemistry analyses. Clinical analysis included serum creatinine, serum gammaGT, serum uric acid, serum glucose, serum protein, serum bilirubin, serum GOT/AST and serum GPT/ALT. Hematology including white blood cell count was analyzed with the help of Automatic Hematology Analyzer (Medonic).
Before sacrifice, blood was drawn from the retro-orbital sinus of mice with the help of heparinised capillary tubes and hematological parameters were assessed with the help of Automatic Hematology Analyzer (Medonic CA535).

OVA specific IgE = test: OVA-specific IgE levels in sera by ELISA, OVA mouse model; assay type: in vivo, BALB/c mice; conditions: 10 mg/kg vs OVA/OVA/VEH
Experimental: (§2) Mice were sensitized with 0.2 ml PBS containing 50 μg ovalbumin (OVA) (Sigma, USA) and 4 mg aluminum hydroxide in saline intraperitonially (i.p.) on days 0, 7 and 14 as shown in FIG. 1. Sham group mice were sensitized with only alum dissolved in PBS. From day 18 to 27, mice were exposed to aerosol of OVA (3%) inhalation 25 minutes daily in a Plexiglas chamber (20×20×10 cm^3). The aerosol was generated by a nebulizer (OMRON CX model) with an airflow rate of 9 L/minute. Sham group mice were challenged with PBS alone.
Compound 1 of formula I was dissolved in 50% ethanol. So 50% ethanol was used as a vehicle. Group I was alum sensitized, saline challenged and treated with vehicle (SHAM/SAL/VEH), group II was OVA sensitized, OVA challenged and treated with 50% ethanol as vehicle (OVA/OVA/VEH), group III, IV, V, VI were OVA sensitized, OVA challenged and treated with 0.05, 0.1, 5 and 10 mg/kg compound 1 of formula I. Drug was given in the volume of 10 μl orally twice per day. […]
OVA-specific IgE levels in sera were measured by enzyme linked immunosorbent assay (ELISA) as described previously with little modification (Inflam. Res. 2003, 52, 101-106). Absorbance values at 450 nm were converted to arbitrary values by multiplying with 100. IL-4 levels in lung homogenates were measured by ELISA method as per manufacturer's instructions (BD Pharmingen, USA). […]

NF-κB pathway = conditions: lipopolysaccharide (LPS)-induced macrophages; cited from earlier work
3T3 cells = test: In vitro cytotoxicity by NRU method, predicted acute oral LD50; assay type: cell-based; conditions: derived from in vitro cytotoxicity
Experimental: as §1

[2] = design: species or system mice; conditions: mouse, in vivo
Experimental: (§3) 14 d acute oral toxicity of compound 1 of formula I was performed. Three doses were selected: 47, 23, 12 and 0 mg/kg bw (Vehicle control) of compound 1 of formula I was administered by single oral gavage using blunt ended steel canula.
Before sacrifice, blood was drawn from the retro-orbital sinus of mice and rats with the help of non-heparinised capillary tubes and hematological parameters were assessed with the help of Automatic Hematology Analyzer (Medonic).

IL-4 = IL-4 levels in lung homogenates by ELISA, OVA mouse model; assay type: in vivo, BALB/c mice; conditions: for IL-4 levels in lung: 10 mg/kg vs OVA/OVA/VEH
Experimental: as §2
Compound 1 of formula I was dissolved in 50% ethanol. So 50% ethanol was used as a vehicle. Group I was alum sensitized, saline challenged and treated with vehicle (SHAM/SAL/VEH), group II was OVA sensitized, OVA challenged and treated with 50% ethanol as vehicle (OVA/OVA/VEH), group III, IV, V, VI were OVA sensitized, OVA challenged and treated with 0.05, 0.1, 5 and 10 mg/kg compound 1 of formula I. Drug was given in the volume of 10 μl orally twice per day. Confirmatory experiments were done with two concentrations of compound 1 of formula I (5 and 10 mg/kg twice a day), and these findings were compared with parallel group of mice which were OVA-sensitized, -OVA challenged and treated orally once a day with 0.75 mg/kg Dexamethasone (OVA/OVA/DEX).
OVA-specific IgE levels in sera were measured by enzyme linked immunosorbent assay (ELISA) as described previously with little modification (Inflam. Res. 2003, 52, 101-106). Absorbance values at 450 nm were converted to arbitrary values by multiplying with 100. IL-4 levels in lung homogenates were measured by ELISA method as per manufacturer's instructions (BD Pharmingen, USA). Lung homogenates were prepared by homogenizing the lung tissue (approximately 100 mg) with 1 ml PBS followed by centrifugation at 10000 g for 30 min at 4° C. Results were expressed in pg/50 μg protein. Protein estimation was done by BCA method.

[3] = design: species or system mice; conditions: mouse, in vivo; remark: listed apart in the source
Experimental: as §3
Clinical biochemistry was performed using detection kit purchased from SPINREACT, SA, Spain. The blood left after the hematological studies were allowed to clot for 2 h and serum separated by centrifugation at 3000 rpm for 5 min and subsequently used for clinical biochemistry. Details of the clinical biochemistry (Table 4) and relative organ weight (Table 5) are given below.

[4] = listed as compound of formula I

## C=CCc1ccc(O)c(O)c1 [Compound 1, 4-allyl-benzene-1,2-diol]
[1]
  Hemoglobin, RBC and WBC counts vs normal range: within the normal range
  platelet counts vs normal range: below the normal range
[1]; 12 mg/kg
  HGB: 13.76 ± 0.55 g/dL
  PLT: 272 ± 93 ×10^3/mm^3
  RBC: 10.07 ± 0.67 ×10^6/mm^3
  WBC: 8.66 ± 1.27 ×10^3/mm^3
[1]; 23 mg/kg
  HGB: 13.85 ± 0.35 g/dL
  PLT: 306 ± 106 ×10^3/mm^3
  RBC: 9.82 ± 0.014 ×10^6/mm^3
  WBC: 10.85 ± 2.11 ×10^3/mm^3
[1]; 47 mg/kg
  HGB: 12.13 ± 0.57 g/dL
  PLT: 319 ± 120 ×10^3/mm^3
  RBC: 8.51 ± 0.323 ×10^6/mm^3
  WBC: 10.16 ± 1.03 ×10^3/mm^3
In vivo acute oral LD50
  in vivo acute oral LD50: 268 mg/kg bw
OVA specific IgE
  OVA specific IgE levels in sera: significantly reduced the OVA specific IgE levels in sera
OVA specific IgE; [4]
  OVA specific IgE levels in sera: significant reduction
NF-κB pathway
  NF-κB pathway: inhibited NF-κB pathway
3T3 cells
  predicted acute oral LD50: 168 mg/kg
[2]; 12 mg/kg
  GRAN: 9.82 ± 3.49%
  HCT: 39.72 ± 5.27%
  HGB: 12.6 ± 2.50 g/dL
  LYMF: 8.54 ± 14.39%
  MCV: 41.76 ± 1.268 μm^3
  MPV: 6.96 ± 0.33 μm^3
  PLT: 588 ± 198 10^3/mm^3
  RBC: 9.52 ± 1.313 ×10^6/mm^3
  WBC: 9.1 ± 0.86 ×10^3/mm^3
[2]; 23 mg/kg
  GRAN: 10.8 ± 2.30%
  HCT: 42.05 ± 7.86%
  HGB: 13.22 ± 1.72 g/dL
  LYMF: 2.12 ± 3.45%
  MCV: 41.675 ± 2.069 μm^3
  MPV: 6.95 ± 0.36 μm^3
  PLT: 518 ± 40 10^3/mm^3
  RBC: 10.05 ± 1.477 ×10^6/mm^3
  WBC: 13.52 ± 2.71 ×10^3/mm^3
[2]; 47 mg/kg
  GRAN: 9.46 ± 2.33%
  HCT: 39.12 ± 1.76%
  HGB: 13.2 ± 0.65 g/dL
  LYMF: 1.0 ± 0.87%
  MCV: 40.45 ± 1.126 μm^3
  MPV: 7.1 ± 0.32 μm^3
  PLT: 476.5 ± 124^ 10^3/mm^3
  RBC: 9.74 ± 0.749 ×10^6/mm^3
  WBC: 11.02 ± 2.61 ×10^3/mm^3
IL-4; 10 mg/kg
  reduction of lung IL-4 compared to DEX treated mice: approx. 65%
IL-4
  IL-4 levels in lung: a decrease in the IL-4 levels
IL-4; [4]
  IL-4 levels in lung: a significant reduction in the IL-4 levels
[3]
  serum bilirubin vs normal range: marginal rise in the serum bilirubin
[3]; 12 mg/kg
  Acid phosphatase: 2.98 ± 1.2
  Bilirubin: 0.28 ± 0.30 mg/dL
  Glucose: 49 ± 0.193 mg/dL
  SGOT: 4.32 ± 1.87 U/L
  SGPT: 8.42 ± 5.8 U/L
  Uric acid: 5.89 ± 1.6 mg/dL
  gammaGT: 1.78 ± 0.68 U/L
[3]; 23 mg/kg
  Acid phosphatase: 2.75 ± 0.74
  Bilirubin: 0.19 ± 0.22 mg/dL
  Glucose: 57 ± 0.12 mg/dL
  SGOT: 8.64 ± 3.74 U/L
  SGPT: 12.15 ± 5.50 U/L
  Uric acid: 7.51 ± 4.13 mg/dL
  gammaGT: 2.38 ± 1.19 U/L
[3]; 47 mg/kg
  Acid phosphatase: 2.06 ± 1.52
  Bilirubin: 1.41 ± 0.3 mg/dL
  Glucose: 58 ± 0.07 mg/dL
  SGOT: 3.24 ± 2.91 U/L
  SGPT: 10.8 ± 23^ U/L
  Uric acid: 5.59 ± 2.67 mg/dL
  gammaGT: 2.38 ± 0.97 U/L
